Measurements published in US11286247B2, “Acryloyl-containing nuclear transport regulators and uses thereof” (WIGEN BIOMEDICINE TECHNOLOGY (SHANGHAI) CO., LTD., priority 2019, dated 2022).
pIC50: −log10 of the molar value. Values after ≈ are worked out from the molar mass of the structure shown. Like-named read-outs stand apart in the source and are kept apart here.

What was measured:
CRM1 = target: T1, CRM1 (Homo sapiens, UniProt O14980); test: Rev-GFP nuclear export assay; type: cell-based; settings: U2OS cells expressing Rev-GFP, 1 hour incubation, nuclear retention of Rev-GFP
T1 construct: The nuclear localization of Rev protein depends on CRM1; endogenous in cells; host or cells: U2OS cells stably or transiently expressing Rev-GFP (reporter cargo)
T1 sequence (O14980 whole entry): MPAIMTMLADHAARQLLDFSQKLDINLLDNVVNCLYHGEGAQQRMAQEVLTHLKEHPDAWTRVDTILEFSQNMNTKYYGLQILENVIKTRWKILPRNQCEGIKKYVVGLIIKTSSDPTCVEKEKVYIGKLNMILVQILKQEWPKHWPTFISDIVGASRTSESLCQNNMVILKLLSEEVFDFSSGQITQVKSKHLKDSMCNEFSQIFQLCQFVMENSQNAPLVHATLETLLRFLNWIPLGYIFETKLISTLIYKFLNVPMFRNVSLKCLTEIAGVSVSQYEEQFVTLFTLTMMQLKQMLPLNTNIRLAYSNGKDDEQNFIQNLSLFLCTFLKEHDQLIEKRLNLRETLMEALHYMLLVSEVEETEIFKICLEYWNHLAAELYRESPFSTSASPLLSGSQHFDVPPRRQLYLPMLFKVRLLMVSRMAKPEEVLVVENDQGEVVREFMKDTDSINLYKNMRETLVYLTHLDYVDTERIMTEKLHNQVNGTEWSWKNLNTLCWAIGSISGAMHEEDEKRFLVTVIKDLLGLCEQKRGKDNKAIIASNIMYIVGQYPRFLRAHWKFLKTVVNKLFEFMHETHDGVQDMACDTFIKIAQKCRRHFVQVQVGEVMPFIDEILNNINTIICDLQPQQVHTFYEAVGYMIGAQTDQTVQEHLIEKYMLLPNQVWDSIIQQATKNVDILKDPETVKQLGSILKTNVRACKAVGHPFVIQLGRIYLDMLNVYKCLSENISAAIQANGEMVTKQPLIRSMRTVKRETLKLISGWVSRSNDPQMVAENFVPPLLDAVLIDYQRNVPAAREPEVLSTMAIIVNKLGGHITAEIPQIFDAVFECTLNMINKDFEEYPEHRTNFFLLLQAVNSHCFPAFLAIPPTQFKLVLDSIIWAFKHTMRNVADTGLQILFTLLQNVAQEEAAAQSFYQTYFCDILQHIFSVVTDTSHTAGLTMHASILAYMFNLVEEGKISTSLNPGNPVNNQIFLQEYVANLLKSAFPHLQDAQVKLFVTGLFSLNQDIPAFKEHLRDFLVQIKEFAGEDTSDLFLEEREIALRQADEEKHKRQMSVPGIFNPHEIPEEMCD
Protocol: The Rev protein from HIV contains nuclear export sequence (NES) at its C terminus and nuclear localization sequence (NLS) at its N-terminus. The nuclear localization of Rev protein depends on CRM1. U2OS cells expressing Rev protein fused with GFP (Rev-GFP) were plated in black 384 plates with clear bottom one day prior to treatment. Compounds were serially diluted 2-fold from 40 μM with DMEM in 384 plates, and then incubated with U2OS cells for an hour. Cells were fixed with 3.7% formaldehyde afterwards and nuclei were stained with Hoechst33258. The nuclear retention of Rev-GFP was examined, and IC50 was calculated.

[1] = system: BxPC-3 cells (pancreatic cancer); test: Cancer cell proliferation assay, BxPC-3; type: cell-based; settings: for IC50 / pIC50: Homo sapiens; for IC50: BXPC-3, 72 h, three days incubation, absorbance 570 nm, read-out: IC50 (μM) BxPC-3; for pIC50: BXPC-3, anti-proliferative assay, read-out: IC50 in BxPC-3 cells
Protocol: (§1) BxPC-3 cells (pancreatic cancer) and MDA-MB-231 cells (breast cancer cells) were harvested from exponential phase cultures and seeded in 96-well plates at a cell density of 2×10^4 per well. After overnight attachment, compounds including positive controls were applied to cells at five concentrations and incubated for three days. During the last four hours of incubation, 20 μL of 5 mg/mL […] was added followed by the further addition of 100 μL DMSO. The plates were subsequently shook for 10 minutes to dissolve insoluble purple formazan. Absorbance (A) at a wavelength of 570 nm was quantified. Percentage of inhibition was used for the calculation of IC50 based on the bliss method.

[2] = system: MDA-MB-231 cells (breast cancer cells); test: Cancer cell proliferation assay, MDA-MB-231; type: cell-based; settings: Homo sapiens; for IC50: MDA-MB-231, 72 h, three days incubation, absorbance 570 nm, read-out: IC50 (μM) MDA-MB-231; for pIC50: MDA-MB-231, anti-proliferative assay, read-out: IC50 in MDA-MB-231 cells
Protocol: as §1

Aqueous solubility assay = type: physicochemical; settings: thermodynamic from solid, HPLC
Protocol: 10-30 mg of compounds were dissolved in water and an HCl solution at pH1.2 respectively, and then were continuously shook for three days, followed by centrifugation at 10000 rpm/minute for five minutes. A 2 mL aliquot of supernatant was removed and diluted to 50 mL to prepare a sample solution. A control solution was prepared by dissolving 2.5 mg compounds in methanol, which was subsequently diluted with water to a final volume of 50 mL. 20 μL of control and sample solutions were injected into HPLC. The area under the curve (A) of the sample solution was compared with that of the control solution and used for determination of the concentration. Solubility was calculated by the formula below. Solubility (mg/mL)=c(control)*25*A(sample)/A(control) • C (control): concentration of the control solution • A (sample): area under the curve of the sample solution • A (control): area under the curve of the control solution

[3] = In vivo pharmacokinetic analysis; settings: ICR, mouse; mice, 5 mg/kg, oral gavage in 0.5% CMC, plasma
Protocol: A group of 9 ICR mice received 5 mg/kg of compound in 0.5% CMC by oral gavage. Blood was taken before treatment and at 5 min, 30 min, 1, 2, 4, 8, 12 and 24 h after treatment. 80 μL of whole blood was sampled (n=3 at each time point) via retro-orbital bleeds or cardiac puncture. The blood sample was collected into EDTA tubes and plasma were obtained by centrifugation at 1500-1600 rpm for 10 min at 4° C. After centrifugation, plasma sample was transferred to a new tube and stored at −60 to −90° C. for future analysis. Plasma concentration of (compounds was quantified by a method based on liquid chromatography coupled to tandem mass-spectrometric detections (LC/MS/MS). Noncompartmental pharmacokinetics parameters were calculated.

BxPC-3 xenografts = test: Anti-tumor growth efficacy in pancreatic tumor BxPC3 nude mice xenograft model; type: in vivo; settings: oral: KPT-330 and 38 10 mg/kg tiw, 79 2.5 mg/kg tiw, 62 10 mg/kg qd; for Tumor volume D1 / average body weight D1: D1, first day of drug treatment; for T/C: TRTV/CRTV X 100
Protocol: BxPC-3 cells were cultured in 1640 medium containing 10% FBS at 37° C. and 5% CO2, 8×10^6 BxPc-3 cells were implanted subcutaneously into the left armpit of 40 nude mice. […] Compound 62 was administered orally everyday (qd) at 10 mg/kg, whereas KPT330 and compound 38 were given three times a week (tiw, Monday, Wednesday and Friday) at 10 mg/kg by oral gavage, and compound 79 were given three times a week (tiw, Monday, Wednesday and Friday) at 2.5 mg/kg by oral gavage. Tumor volume and body weight were measured every other day. Mice were sacrificed on day 21, and tumor and terminal body weight were recorded. The relative tumor volume, percent treatment/control values and tumor growth inhibition were calculated and statistics was performed.

[4] = simulated gastric fluid, HCl solution of pH 1.2, shaken three days, read-out: Solubility, HCl solution of pH 1.2
[5] = water, shaken three days, read-out: Solubility, Water

Compound | pIC50 (CRM1) | IC50 [1] [µM] | IC50 [2] [µM] | solubility at 3 days (Aqueous solubility assay; [4]) [µg/mL] | solubility at 3 days (Aqueous solubility assay; [5]) [µg/mL] | AUC(0-t) [3] [ng·h/mL] | Cmax [3] [ng/mL] | MRT [3] [h] | Tmax [3] [min] | half-life [3] [min] | Tumor volume D1 (BxPC-3 xenografts) [mm^3] | average body weight D1 (BxPC-3 xenografts) [g] | TGI (tumor growth inhibition) (BxPC-3 xenografts; D21) [%] | Tumor volume D21 (BxPC-3 xenografts; D21) [mm^3] | average body weight D21 (BxPC-3 xenografts; D21) [g] | RTV (relative tumor volume, Vt/V0) (BxPC-3 xenografts; D21, *P < 0.05 vs. vehicle group) | T/C (BxPC-3 xenografts) [%] | pIC50 [1] | folds of enhancement of activity in the anti-proliferative assay ([1]; in comparison to KPT330, BxPC-3 and MDA-MB-231 cells) [folds] | pIC50 [2]
O=C(/C=C\n1cnc(-c2cc(C(F)(F)F)cc(C(F)(F)F)c2)n1)NN1CCCC1=O [Compound 2, (Z)-3-(3-(3,5-bis(trifluoromethyl)phenyl)-1H-1,2,4-triazol-1-yl)-N-(2-oxopyrrolidin-1-yl)acrylamide] | > 6.00 | 0.269 | 0.024 | 14.6 (≈ 33.6 µM) | 11.3 (≈ 26.1 µM) | 2660 | 502 | 6.59 | 30 | 275 |  |  |  |  |  |  |  |  |  | 
CC1=C(C)C(=O)N(NC(=O)/C=C\n2cnc(-c3cc(C(F)(F)F)cc(C(F)(F)F)c3)n2)C1 [Compound 5, (Z)-3-(3-(3,5-bis(trifluoromethyl)phenyl)-1H-1,2,4-triazol-1-yl)-N-(3,4-dimethyl-2-oxo-2,5-dihydro-1H-pyrrol-1-yl)acrylamide] | > 6.00 | 0.202 | 0.955 |  |  | 3690 | 674 | 4.34 | 60 | 272 |  |  |  |  |  |  |  |  |  | 
CN1CCC2(CC1)CC(=O)N(NC(=O)/C=C\n1cnc(-c3cc(C(F)(F)F)cc(C(F)(F)F)c3)n1)C2 [Compound 23, (Z)-3-(3-(3,5-bis(trifluoromethyl)phenyl)-1H-1,2,4-triazol-1-yl)-N-(8-methyl-3-oxo-2,8-diazaspiro[4.5]decan-2-yl)acrylamide] | > 6.00 | 0.664 | 0.407 | 159 (≈ 307 µM) | 40.3 (≈ 78.1 µM) |  |  |  |  |  |  |  |  |  |  |  |  |  |  | 
O=C(/C=C\n1cnc(-c2cc(C(F)(F)F)cc(C(F)(F)F)c2)n1)NN1C(=O)[C@@H]2CC[C@H]1C2 [Compound 33, (Z)-3-(3-(3,5-bis(trifluoromethyl)phenyl)-1H-1,2,4-triazol-1-yl)-N-((1S,4R)-3-oxo-2-azabicyclo[2.2.1]heptan-2-yl)acrylamide] | > 6.00 | 0.156 | 0.165 |  |  | 5770 | 697 | 6.76 | 60 | 262 |  |  |  |  |  |  |  |  |  | 
CN1C(=O)CCN1C(=O)/C=C\n1cnc(-c2cc(C(F)(F)F)cc(C(F)(F)F)c2)n1 [Compound 62, (Z)-1-(3-(3-(3,5-bis(trifluoromethyl)phenyl)-1H-1,2,4-triazol-1-yl)acryloyl)-2-methylpyrazolidin-3-one] | > 6.00 | 0.124 | 0.186 | 220 (≈ 508 µM) | 320 (≈ 738 µM) |  |  |  |  |  | 65.32 ± 6.61 | 20.55 | 77.35 | 152.32 ± 24.78 | 21.08 | 2.33* | 35.10 |  |  | 
COCCN1C(=O)CCN1C(=O)/C=C\n1cnc(-c2cc(C(F)(F)F)cc(C(F)(F)F)c2)n1 [Compound 71, (Z)-1-(3-(3-(3,5-bis(trifluoromethyl)phenyl)-1H-1,2,4-triazol-1-yl)acryloyl)-2-(2-methoxyethyl)pyrazolidin-3-one] | > 6.00 | 0.586 | 0.245 | 147 (≈ 307 µM) | 229 (≈ 479 µM) |  |  |  |  |  |  |  |  |  |  |  |  |  |  | 
O=C(/C=C\n1cnc(-c2cc(C(F)(F)F)cc(C(F)(F)F)c2)n1)N1CCC(=O)N1CC1CC1 [Compound 72, (Z)-1-(3-(3-(3,5-bis(trifluoromethyl)phenyl)-1H-1,2,4-triazol-1-yl)acryloyl)-2-(cyclopropylmethyl)pyrazolidin-3-one] | > 6.00 | 0.137 | 0.119 | 27.4 (≈ 58 µM) | 20.9 (≈ 44.2 µM) |  |  |  |  |  |  |  |  |  |  |  |  |  |  | 
COC1=CC(=O)N(NC(=O)/C=C\n2cnc(-c3cc(C(F)(F)F)cc(C(F)(F)F)c3)n2)CC1 [Compound 87, (Z)-3-(3-(3,5-bis(trifluoromethyl)phenyl)-1H-1,2,4-triazol-1-yl)-N-(4-methoxy-6-oxo-3,6-dihydropyridin-1(2H)-yl)acrylamide] | > 6.00 | 0.041 | 0.021 |  |  | 4080 | 389 | 6.56 | 30 | 162 |  |  |  |  |  |  |  | 7.39 | 20 | 7.68
O=C(/C=C\n1cnc(-c2cc(C(F)(F)F)cc(C(F)(F)F)c2)n1)N1CCCN1 [Compound 90, (Z)-3-(3-(3,5-bis(trifluoromethyl)phenyl)-1H-1,2,4-triazol-1-yl)-1-(pyrazolidin-1-yl)prop-2-en-1-one] |  |  |  | 349 (≈ 861 µM) | 156 (≈ 386 µM) |  |  |  |  |  |  |  |  |  |  |  |  |  |  | 
O=C(/C=C\n1cnc(-c2cc(C(F)(F)F)cc(C(F)(F)F)c2)n1)N1CCCN1C(=O)C1CC1 [Compound 98, (Z)-3-(3-(3,5-bis(trifluoromethyl)phenyl)-1H-1,2,4-triazol-1-yl)-1-(2-(cyclopropanecarbonyl)pyrazolidin-1-yl)prop-2-en-1-one] | > 6.00 | 0.302 | 0.487 |  |  |  |  |  |  |  |  |  |  |  |  |  |  |  |  | 
O=C(/C=C\n1cnc(-c2cc(C(F)(F)F)cc(C(F)(F)F)c2)n1)NNc1cnccn1 [KPT-330, Selinexor, reference compound] |  | 0.705 | 0.458 | 6.52 (≈ 14.7 µM) | 6.25 (≈ 14.1 µM) | 2470 | 325 | 6.94 | 30 | 160 | 65.06 ± 6.45 | 19.97 | 77.55 | 151.31 ± 23.90 | 19.97 |  | 35.02 | 6.15 |  | 6.34
